# Test results as given in publication PMC9096754 (Scientific Reports, 2022).
# Read-outs that look alike come from different tables or passages of the source.
# Tests used:
# [1] = biological target: T1, human AA2AR (Homo sapiens, UniProt P29274); test: Adenosine A2A receptor (AA2AR) calcium flux assay in RBL-2H3 cells (Eurofins Cerep 86-0011P-2409AN); type: cell-based; settings: top 30 μM, active if IC50 lower than 30 μM
# T1 construct: host or cells: RBL-2H3
# [2] = biological target: T2, PI3 Kinase (p110b/p85a) (Homo sapiens, UniProt P42338); test: PI3 Kinase (p110b/p85a) enzymatic HTRF assay (Eurofins Cerep 14-603KP); type: biochemical; settings: for remaining activity at 30 µM: % kinase activity remaining
# T2 construct: purchased Eurofins (Cerep), fee-for-service 14-603KP
# Experimental: Additional details on the conduct of in vitro assays are included in Supplementary Information S1. […]
# PI3 Kinase (p110b/p85a). The enzyme was incubated in assay buffer containing 10 µM
# phosphatidylinositol -4, 5-bispho sphate and Mg/A TP (200 µM). The reaction was initiated by
# the addition of the Mg/ATP mixture. Afte r incubation for 30 minutes at 25 °C, the reaction was
# terminated by the addition of a solution containing EDTA and biotinylated
# phosphatidylinositol - 3,4,5-trisphosphate. Detection buffer containing europium -labelled anti -
# GST monoclonal antibody, GST -tagged GRP1 PH domain and streptavidin -allophycocyanin
# was added. Following, the plate was read in time-resolved fluorescence mode and the
# homogeneous time -resolved fluorescence (HTRF) signal was determined according to the
# formula HTRF = 10000 x (Em665 nm/Em6 20 nm). PI-103 was used as reference compound.
# A primary screening in duplicated was carried out (30 µM) to determine the target activity. The
# result was e xpres sed as a percentage of the positiv e control (i.e. % kinase activity remaining),
# and the mean of the replicates was calculated. (Eurofins Cerep assay ID: 14 -603KP) […]
# A primary screening in duplicated was carried out (30 µM) to determine the target
# [3] = biological target: PKN2 (human) (Homo sapiens, UniProt Q16513); test: biochemical
# [4] = biological target: T3, Mouse recombinant iNOS (Mus musculus, UniProt P29477); test: Inducible NOS (iNOS) enzymatic assay (Eurofins Cerep 3185); type: biochemical
# T3 construct: purchased Eurofins (Cerep), fee-for-service 3185; host or cells: Escherichia coli
# Experimental: In vitro characterization was performed on a fee-for-service basis at Eurofins (www.eurofins.com) if the assay was commercially available. […] DTT) to remove unbound ligand and to reduce nonspecific binding. […] The analysis was carried on in polypropylene 384-well plates incubated at 25 °C with shaking for 1 h in a final volume of 20 μL. […] The kinase concentration in the eluates was measured by qPCR. […] The mixture was incubated for 90 minutes at 37 °C, followed by the addition of Griess reagent. The binding was determined by photometry at 545 nm. […] was used as reference compound. […] A primary screening in duplicated was carried out (30 μM) to determine the target activity. […] The reaction was initiated by the addition of the Mg/ATP mixture. Afte r incubation for 30 minutes at 25 °C, the reaction was terminated by the addition of a solution containing EDTA and biotinylated phosphatidylinositol - 3,4,5-trisphosphate. Detection buffer containing europium -labelled anti - GST monoclonal antibody, GST -tagged GRP1 PH domain and streptavidin -allophycocyanin was added. Following, the plate was read in time-resolved fluorescence mode and the homogeneous time -resolved fluorescence (HTRF) signal was determined according to the formula HTRF = 10000 x (Em665 nm/Em6 20 nm). PI-103 was used as reference compound. […] The binding was determined by Spectrofluorimetric quantitation of rhodamine 123 (Excitation: 485 nm, Emission: 535 nm). 2 -TEDC was used as a reference compound. A primary screening in duplicated was carried out (30 μM) to determine the target S4
# [5] = biological target: T4, Epidermal growth factor receptor (EGFR) (Homo sapiens, UniProt P00533); test: Epidermal Growth Factor Receptor (EGFR) enzymatic radiometric assay (Eurofins Cerep 14-531KP); type: biochemical
# T4 construct: purchased Eurofins (Cerep), fee-for-service 14-531KP
# [6] = biological target: T5, human PDE10A2 (Homo sapiens, UniProt Q9Y233); test: Phosphodiesterase 10A2 (PDE10A2) enzymatic assay (Eurofins Cerep 4080); type: biochemical
# T5 construct: purchased Eurofins (Cerep), fee-for-service 4080; host or cells: Sf9
# Experimental: In vitro characterization was performed on a fee-for-service basis at Eurofins (www.eurofins.com) if the assay was commercially available.
# Additional details on the conduct of in vitro assays are included in Supplementary Information S1.
# The IC50 value and the standard error of the mean (SEM) were determined by a non-linear, least squares regression analysis using GraphPad Prism Version 9.0.2 for Macintosh (GraphPad Software, San Diego, California USA, https://www.graphpad.com). The dose–response curve was plotted using RStudio Team (2020), v. 1.3.1073 (RStudio, PBC, Boston, MA, http://www.rstudio.com/). […]
# (§1) formation of 5’AMP from cAMP using human recombinant enzyme e xpressed in Sf9 cells.
# (§2) The test compound was added to a buffer containing 40 mM Tris/HCl (pH 7. 4), 8 mM MgCl2, and 0. 2 µM [3H]cAMP + cAMP. Thereafter, enzyme (about 0. 8 U) wa s added and the mixture incubated for 20 minutes at 25 °C. SPA beads were added and the mixture was maintained at 25 °C for 30 minutes under shaking. [3H]5’AMP was quantified via scintillation counting. The […]
# used as standard inhibitory reference compound. A primary screening in duplicated was carried out (30 µM) to determine the target activity.
# (100 µM highest concentration and dilution factor in a log-scale) in triplicate for dose-respons e
# [7] = tested on: PDE10A; set-up: method as in printed at the sentence; settings: PDE10A inhibitor, papaverine analog; ref not given; cited from earlier work
# [8] = biological target: T6, human ADORA3 (Homo sapiens, UniProt P0DMS8); test: Adenosine A3 receptor (ADORA3) functional cAMP HTRF assay in CHO cells (Eurofins Cerep G107); type: cell-based; settings: 8 concentrations, top 30 μM, active if IC50 lower than 30 μM
# T6 construct: host or cells: CHO
# T6 sequence (P0DMS8 1-318): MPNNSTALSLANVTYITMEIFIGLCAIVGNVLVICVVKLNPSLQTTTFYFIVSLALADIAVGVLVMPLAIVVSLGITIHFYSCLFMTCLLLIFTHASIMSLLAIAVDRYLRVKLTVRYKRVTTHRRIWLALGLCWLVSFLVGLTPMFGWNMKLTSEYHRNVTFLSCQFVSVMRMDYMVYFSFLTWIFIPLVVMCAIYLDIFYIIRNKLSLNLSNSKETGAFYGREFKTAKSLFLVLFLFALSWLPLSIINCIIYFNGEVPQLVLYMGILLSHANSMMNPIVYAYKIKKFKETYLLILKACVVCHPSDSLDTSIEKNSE
# Experimental: In vitro characterization was performed on a fee-for-service basis at Eurofins (www.eurofins.com) if the assay was commercially available. […]
# tested at 8 concentrations (100 µM a s the highest concentration and dilution factor in a log-scale) in triplicate for dose-response curve and IC50 determination. (Eurofins Cerep assay ID: […]
# as §1, §2
# used as standard inhibitory reference compound. […]
# Functional activity of ADORA3 was evaluated in CHO cells transfected with human […]
# (100 nM IB-MECA) in a first assay, and in a second one with […] (10 nM IB -ME CA) for 20 minutes at 37 °C, and formation of cAMP was determined by homogeneous time resolved fluorescence (HTRF) at lex=337 nm and lem=620 and 665 nm using a microplate reader (Envison, Perkin Elmer). The cAMP concentration was determined by dividing the […]
# signal measured at 665 nm by that measured at 620 nm (ratio). […]
# [9] = biological target: T7, Human recombinant 15-ALOX (Homo sapiens, UniProt P16050); test: Arachidonate 15-lipoxygenase (15-ALOX) enzymatic assay (Eurofins Cerep 199017); type: biochemical
# T7 construct: purchased Eurofins (Cerep), fee-for-service 199017; host or cells: E. coli
# T7 sequence (P16050 1-662): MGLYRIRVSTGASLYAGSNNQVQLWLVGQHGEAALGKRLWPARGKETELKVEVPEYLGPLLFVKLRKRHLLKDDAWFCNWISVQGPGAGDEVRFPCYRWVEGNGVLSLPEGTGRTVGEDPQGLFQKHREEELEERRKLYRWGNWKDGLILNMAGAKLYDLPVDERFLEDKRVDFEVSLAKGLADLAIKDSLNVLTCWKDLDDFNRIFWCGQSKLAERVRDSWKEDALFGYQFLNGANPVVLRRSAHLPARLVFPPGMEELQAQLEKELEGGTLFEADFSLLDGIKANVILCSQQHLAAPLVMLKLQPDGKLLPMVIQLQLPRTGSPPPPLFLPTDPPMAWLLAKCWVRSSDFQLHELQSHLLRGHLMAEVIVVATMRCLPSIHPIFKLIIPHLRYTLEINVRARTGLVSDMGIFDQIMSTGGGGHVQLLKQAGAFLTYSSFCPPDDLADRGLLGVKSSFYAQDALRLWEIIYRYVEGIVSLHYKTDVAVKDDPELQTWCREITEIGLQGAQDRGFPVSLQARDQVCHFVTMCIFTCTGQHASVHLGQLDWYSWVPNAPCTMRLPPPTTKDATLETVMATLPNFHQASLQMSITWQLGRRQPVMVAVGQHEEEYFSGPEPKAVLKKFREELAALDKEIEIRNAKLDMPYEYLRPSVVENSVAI
# [10] = tested at 30 μM, active if IC50 lower than 30 μM
# T2 sequence (P42338 whole entry): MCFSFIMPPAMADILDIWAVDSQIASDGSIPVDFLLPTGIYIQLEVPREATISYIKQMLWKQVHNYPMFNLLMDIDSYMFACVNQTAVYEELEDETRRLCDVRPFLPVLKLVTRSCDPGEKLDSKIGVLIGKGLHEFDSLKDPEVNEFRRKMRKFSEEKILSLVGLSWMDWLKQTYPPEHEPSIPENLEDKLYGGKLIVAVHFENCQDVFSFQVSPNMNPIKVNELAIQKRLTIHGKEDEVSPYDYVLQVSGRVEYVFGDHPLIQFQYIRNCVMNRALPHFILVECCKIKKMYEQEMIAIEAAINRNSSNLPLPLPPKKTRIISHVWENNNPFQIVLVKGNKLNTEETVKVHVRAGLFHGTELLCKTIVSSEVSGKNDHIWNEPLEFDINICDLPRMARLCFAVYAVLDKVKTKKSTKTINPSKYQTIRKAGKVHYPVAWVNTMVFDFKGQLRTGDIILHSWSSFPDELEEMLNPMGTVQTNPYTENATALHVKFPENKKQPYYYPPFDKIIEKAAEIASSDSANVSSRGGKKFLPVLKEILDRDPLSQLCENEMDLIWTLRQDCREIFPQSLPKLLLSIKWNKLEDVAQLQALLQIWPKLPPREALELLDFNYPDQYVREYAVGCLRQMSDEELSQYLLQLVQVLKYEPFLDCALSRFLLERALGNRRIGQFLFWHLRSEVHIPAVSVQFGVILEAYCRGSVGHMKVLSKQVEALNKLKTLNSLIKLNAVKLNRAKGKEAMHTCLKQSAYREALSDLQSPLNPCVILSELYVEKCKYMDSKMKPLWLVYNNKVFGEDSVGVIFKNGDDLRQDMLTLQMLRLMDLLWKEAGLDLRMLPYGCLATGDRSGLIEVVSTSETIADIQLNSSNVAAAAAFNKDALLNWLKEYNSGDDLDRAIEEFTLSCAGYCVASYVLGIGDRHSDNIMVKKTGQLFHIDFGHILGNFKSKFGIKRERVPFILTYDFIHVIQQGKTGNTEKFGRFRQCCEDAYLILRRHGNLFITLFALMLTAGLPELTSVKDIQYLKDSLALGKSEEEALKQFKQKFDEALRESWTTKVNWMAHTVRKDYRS
# T2 sequence (P27986 whole entry partner): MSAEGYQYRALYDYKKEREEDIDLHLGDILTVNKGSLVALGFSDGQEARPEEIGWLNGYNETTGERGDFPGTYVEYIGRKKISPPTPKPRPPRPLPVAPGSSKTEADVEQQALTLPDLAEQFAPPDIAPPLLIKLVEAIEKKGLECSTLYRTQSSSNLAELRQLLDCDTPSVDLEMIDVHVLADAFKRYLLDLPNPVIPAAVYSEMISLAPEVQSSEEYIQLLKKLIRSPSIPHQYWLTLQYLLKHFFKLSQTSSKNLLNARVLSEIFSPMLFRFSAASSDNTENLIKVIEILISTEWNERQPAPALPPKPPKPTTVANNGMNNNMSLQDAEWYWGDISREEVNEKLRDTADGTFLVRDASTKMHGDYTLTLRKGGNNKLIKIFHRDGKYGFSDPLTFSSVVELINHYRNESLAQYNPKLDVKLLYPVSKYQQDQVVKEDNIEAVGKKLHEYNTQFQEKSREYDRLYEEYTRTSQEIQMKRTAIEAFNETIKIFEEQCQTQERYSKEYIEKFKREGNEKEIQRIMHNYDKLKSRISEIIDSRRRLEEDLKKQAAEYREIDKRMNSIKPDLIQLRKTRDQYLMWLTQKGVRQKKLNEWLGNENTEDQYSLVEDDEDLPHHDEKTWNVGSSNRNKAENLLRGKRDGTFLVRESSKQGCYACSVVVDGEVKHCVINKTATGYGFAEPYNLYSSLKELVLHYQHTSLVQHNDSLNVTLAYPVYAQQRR
# T5 sequence (Q9Y233 267-1055): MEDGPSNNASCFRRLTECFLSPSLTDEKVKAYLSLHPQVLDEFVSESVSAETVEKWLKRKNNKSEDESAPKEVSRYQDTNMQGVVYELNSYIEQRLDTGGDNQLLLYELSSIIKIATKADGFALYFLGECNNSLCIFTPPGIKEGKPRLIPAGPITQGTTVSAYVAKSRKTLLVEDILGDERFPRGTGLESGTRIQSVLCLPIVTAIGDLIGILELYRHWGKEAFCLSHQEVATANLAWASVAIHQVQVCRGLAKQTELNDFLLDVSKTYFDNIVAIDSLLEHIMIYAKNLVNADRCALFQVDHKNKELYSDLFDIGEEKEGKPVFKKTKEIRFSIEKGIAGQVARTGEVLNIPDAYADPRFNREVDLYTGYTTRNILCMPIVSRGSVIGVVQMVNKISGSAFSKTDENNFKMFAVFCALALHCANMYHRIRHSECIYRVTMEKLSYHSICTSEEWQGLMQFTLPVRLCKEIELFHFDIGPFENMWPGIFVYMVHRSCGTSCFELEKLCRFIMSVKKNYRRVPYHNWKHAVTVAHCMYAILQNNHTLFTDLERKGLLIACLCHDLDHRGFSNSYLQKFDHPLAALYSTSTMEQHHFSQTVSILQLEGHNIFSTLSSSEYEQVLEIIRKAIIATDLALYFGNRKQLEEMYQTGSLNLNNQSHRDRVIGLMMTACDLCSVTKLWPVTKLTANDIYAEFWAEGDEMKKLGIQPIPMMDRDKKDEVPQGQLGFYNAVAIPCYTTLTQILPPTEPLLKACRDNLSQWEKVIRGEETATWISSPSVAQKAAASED
# Sequence of PKN2 (human) (Q16513 whole entry): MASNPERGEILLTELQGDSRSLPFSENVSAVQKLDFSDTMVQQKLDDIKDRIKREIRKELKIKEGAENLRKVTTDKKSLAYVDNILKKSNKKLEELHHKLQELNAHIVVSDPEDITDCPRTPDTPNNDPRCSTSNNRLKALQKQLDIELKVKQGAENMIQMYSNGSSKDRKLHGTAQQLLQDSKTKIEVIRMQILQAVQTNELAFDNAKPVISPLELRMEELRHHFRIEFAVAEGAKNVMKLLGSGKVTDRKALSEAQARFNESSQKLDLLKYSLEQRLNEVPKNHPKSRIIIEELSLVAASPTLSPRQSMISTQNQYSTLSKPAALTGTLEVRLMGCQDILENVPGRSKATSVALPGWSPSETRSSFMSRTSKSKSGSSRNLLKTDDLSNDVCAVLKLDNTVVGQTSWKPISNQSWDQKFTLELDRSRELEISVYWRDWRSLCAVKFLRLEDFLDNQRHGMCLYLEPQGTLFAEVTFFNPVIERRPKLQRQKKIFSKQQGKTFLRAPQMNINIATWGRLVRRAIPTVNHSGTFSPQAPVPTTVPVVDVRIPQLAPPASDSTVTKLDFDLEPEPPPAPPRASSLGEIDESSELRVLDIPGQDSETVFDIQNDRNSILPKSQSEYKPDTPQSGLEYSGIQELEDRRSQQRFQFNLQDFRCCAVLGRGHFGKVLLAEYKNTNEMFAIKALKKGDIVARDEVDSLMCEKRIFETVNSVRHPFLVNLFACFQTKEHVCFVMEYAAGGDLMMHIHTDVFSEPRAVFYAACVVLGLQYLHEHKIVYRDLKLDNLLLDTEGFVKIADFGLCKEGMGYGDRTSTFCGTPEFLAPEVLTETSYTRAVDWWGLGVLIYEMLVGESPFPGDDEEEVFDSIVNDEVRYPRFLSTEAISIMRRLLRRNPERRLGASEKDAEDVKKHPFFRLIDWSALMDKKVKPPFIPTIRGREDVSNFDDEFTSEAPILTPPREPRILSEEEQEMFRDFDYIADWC
# T1 sequence (P29274 whole entry): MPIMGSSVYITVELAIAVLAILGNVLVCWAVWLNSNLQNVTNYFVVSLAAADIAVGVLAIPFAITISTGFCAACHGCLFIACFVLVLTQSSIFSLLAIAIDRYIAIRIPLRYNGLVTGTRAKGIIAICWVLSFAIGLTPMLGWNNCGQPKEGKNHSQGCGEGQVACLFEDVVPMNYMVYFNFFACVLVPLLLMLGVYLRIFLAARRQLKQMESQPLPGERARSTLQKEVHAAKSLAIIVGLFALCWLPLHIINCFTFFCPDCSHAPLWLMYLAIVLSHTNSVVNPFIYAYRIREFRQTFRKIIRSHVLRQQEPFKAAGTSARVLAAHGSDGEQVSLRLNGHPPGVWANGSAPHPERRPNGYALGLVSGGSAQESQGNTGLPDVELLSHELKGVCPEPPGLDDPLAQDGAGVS
structure (smiles),measurement,setting,value
CCS(=O)(=O)N1CC(CC#N)(n2cc(-c3ncnc4[nH]ccc34)cn2)C1 [Baricitinib],"IC50 (μM), AA2AR, antagonistic effect",[1]; antagonistic effect,Inactive
same,inhibition at 30 µM,"[2]; 30 µM, mean of n=2, read-out: % inhibition (mean) activity, PI3Kbeta (p110b/p85a)",4%
same,remaining activity at 30 µM,"[2]; 30 µM, replicate 1, read-out: % inhibition of control activity (1st), measured as % of positive control activity, PI3Kbeta (p110b/p85a)",92%
same,remaining activity at 30 µM,"[2]; 30 µM, replicate 2, read-out: % inhibition of control activity (2nd), measured as % of positive control activity, PI3Kbeta (p110b/p85a)",99%
same,"IC50 (μM), PI3 Kinase (p110b/p85a)",[2]; [10],Inactive
same,inhibition at 30 µM,"[3]; read-out: % inhibition (mean) activity, PRK2",98%
same,remaining activity at 30 µM,"[3]; read-out: % inhibition of control activity (1st), measured as % of positive control activity, PRK2",1%
same,remaining activity at 30 µM,"[3]; read-out: % inhibition of control activity (2nd), measured as % of positive control activity, PRK2",2%
same,inhibition at 30 µM,"[4]; mean of n=2, read-out: % inhibition (mean) activity, iNOS",5%
same,inhibition at 30 µM,"[4]; replicate 1, read-out: % inhibition of control activity (1st), iNOS",6%
same,inhibition at 30 µM,"[4]; replicate 2, read-out: % inhibition of control activity (2nd), iNOS",4%
same,"IC50 (μM), iNOS",[4]; [10],Inactive
same,inhibition at 30 µM,"[5]; 30 µM, mean of n=2",21%
same,"IC50 (μM), EGFR",[5]; [10],Inactive
same,inhibition at 30 µM,"[6]; mean of n=2, read-out: % inhibition (mean) activity, PDE10A2",44.8%
same,inhibition at 30 µM,"[6]; replicate 1, read-out: % inhibition of control activity (1st), PDE10A2",45.5%
same,inhibition at 30 µM,"[6]; replicate 2, read-out: % inhibition of control activity (2nd), PDE10A2",44%
same,IC50,"[6]; dose–response, 8 concentrations, top 100 μM, triplicate, mean ± SEM",28 ± 2 µM
same,Ki,"[6]; estimated from experimental IC50, Cheng and Prusoff",6.1 µM
COc1cc2ncnc(N3CC[C@@H](Oc4cnc5ccccc5n4)C3)c2cc1OC [PQ-10],IC50,[7],6 µM
C[C@@H]1CCN(C(=O)CC#N)C[C@@H]1N(C)c1ncnc2[nH]ccc12 [Tofacitinib],"IC50 (μM), AA2AR, agonistic effect",[1]; agonistic effect (footnote c),Inactive
same,"IC50 (μM), ADORA3, antagonistic and agonistic effect",[8],Inactive
same,"IC50 (μM), 15-ALOX","[9]; 30 μM screen, follow-up 8 concentrations top 100 μM, triplicate, active if IC50 lower than 30 μM",Inactive
same,inhibition at 30 µM,"[9]; mean of n=2, read-out: % inhibition (mean) activity, 15-LOX-1",27%
same,inhibition at 30 µM,"[9]; replicate 1, read-out: % inhibition of control activity (1st), 15-LOX-1",19.3%
same,inhibition at 30 µM,"[9]; replicate 2, read-out: % inhibition of control activity (2nd), 15-LOX-1",34%
